# Biological target: T1, Y71E mutant EAG1 channels (Mus musculus, UniProt Q60603, Y71E)
# T1 construct: expressed in transfected cells; host or cells: Xenopus laevis oocytes injected with cRNA
# T1 sequence (Q60603 1-989 Y71E): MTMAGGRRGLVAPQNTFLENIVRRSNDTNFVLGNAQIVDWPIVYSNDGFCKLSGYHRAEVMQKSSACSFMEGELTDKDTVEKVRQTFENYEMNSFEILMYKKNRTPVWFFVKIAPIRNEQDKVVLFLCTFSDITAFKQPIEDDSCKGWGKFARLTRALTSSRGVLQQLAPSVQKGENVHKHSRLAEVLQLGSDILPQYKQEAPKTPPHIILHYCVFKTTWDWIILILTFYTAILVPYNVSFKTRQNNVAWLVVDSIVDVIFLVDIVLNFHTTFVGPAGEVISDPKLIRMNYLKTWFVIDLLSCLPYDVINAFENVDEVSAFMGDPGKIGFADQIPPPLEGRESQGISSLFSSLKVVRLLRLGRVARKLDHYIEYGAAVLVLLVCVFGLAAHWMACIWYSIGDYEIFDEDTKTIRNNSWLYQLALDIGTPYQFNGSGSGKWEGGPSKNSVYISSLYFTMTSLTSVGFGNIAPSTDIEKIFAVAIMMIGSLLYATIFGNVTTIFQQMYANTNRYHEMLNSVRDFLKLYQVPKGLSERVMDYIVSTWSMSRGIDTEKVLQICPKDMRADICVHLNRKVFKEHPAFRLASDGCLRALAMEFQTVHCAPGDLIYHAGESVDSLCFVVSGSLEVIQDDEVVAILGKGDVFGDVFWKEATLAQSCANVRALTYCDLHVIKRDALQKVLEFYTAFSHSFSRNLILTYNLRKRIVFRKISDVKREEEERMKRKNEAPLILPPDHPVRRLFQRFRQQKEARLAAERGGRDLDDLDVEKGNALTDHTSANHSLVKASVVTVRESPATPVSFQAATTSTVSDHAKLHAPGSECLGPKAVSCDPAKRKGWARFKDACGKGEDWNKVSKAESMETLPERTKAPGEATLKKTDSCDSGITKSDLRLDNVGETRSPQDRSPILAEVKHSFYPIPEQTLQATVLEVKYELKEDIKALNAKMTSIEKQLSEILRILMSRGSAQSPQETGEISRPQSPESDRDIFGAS
# Assay: TEVC recording, imipramine inhibition, Y71E mutant
# Format: cell-based
# Details: Y71E mutant EAG1 channel, +50 mV
# Source text: The cDNA encoding wild-type (WT) mouse EAG1 channels in pGH19 vector was kindly provided by G. Robertson (University of Wisconsin-Madison, Madison, WI). The mutant ΔPAS EAG1 channel in pGH19 with the deletion of the PAS domain residues 2 to 130 was generated by Bio Basic Inc and verified by DNA sequencing (Genewiz). Mutant EAG1 channels with single amino acid substitutions were generated by Genewiz and verified by DNA sequencing. cRNA was transcribed using the T7 mMessage mMachine kit (Thermo Fisher Scientific). Defolliculated Xenopus laevis oocytes were purchased from Ecocyte Bioscience or Xenopus1 and injected with the cRNA using a Nanoinject II oocyte injector (Drummond).
# For EAG1 current recordings, oocytes were placed into a handmade chamber containing a bath solution for the current recording. The currents were recorded using a TEVC technique with OC-725C amplifier (Warner Instruments) and pClamp11 software (Molecular Devices). The signals were digitized using Digidata 1550 (Molecular Devices). Patch pipettes were pulled from borosilicate glass and had resistances of 0.7 to 1.5 MΩ. The recording (bath) solution contained 96 mM NaCl, 4 mM KCl, 0.1 mM CaCl2, 1.8 mM MgCl2, and 5 mM HEPES, pH 7.5. The pipette solution contained 3 M KCl. […]
compound,measurement,value
CN(C)CCCN1c2ccccc2CCc2ccccc21 [imipramine],IC50,28.5 ± 1.4 µM
